Reference: PubChem BioAssay (NCI)
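Protocol summary: plate cells (96-well), add compound at 5 concentrations, incubate 48 h, interpolate endpoints linearly. TGI denotes the concentration required for complete inhibition of growth.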

How the values were obtained:
Assay in all cases: NCI anticancer screen, dose series, 48 h
EKVX NSCLC = system: EKVX NSCLC
NCI-H522 lung = system: NCI-H522 lung
K-562 leukemia = system: K-562 leukemia
SF-295 CNS = system: SF-295 CNS
UACC-257 melanoma = system: UACC-257 melanoma
HOP-62 NSCLC = system: HOP-62 NSCLC
MOLT-4 leukemia = system: MOLT-4 leukemia
NCI-H460 lung = system: NCI-H460 lung
U251 CNS = system: U251 CNS
HOP-92 NSCLC = system: HOP-92 NSCLC
A549 NSCLC = system: A549 NSCLC
SF-268 CNS = system: SF-268 CNS

Row | Structure (SMILES) | TGI (EKVX NSCLC) [µM] | TGI (NCI-H522 lung) [µM] | TGI (K-562 leukemia) [µM] | TGI (SF-295 CNS) [µM] | TGI (UACC-257 melanoma) [µM] | TGI (HOP-62 NSCLC) [µM] | TGI (MOLT-4 leukemia) [µM] | TGI (NCI-H460 lung) [µM] | TGI (U251 CNS) [µM] | TGI (HOP-92 NSCLC) [µM] | TGI (A549 NSCLC) [µM] | TGI (SF-268 CNS) [µM]
1 | Cc1cc(S(=O)(=O)Nc2n[nH]c(N)n2)c(SCC(=O)O)cc1Cl | > 10 | > 10 | > 10 | > 10 | > 10 | > 10 | > 10 | > 10 | > 10 | > 10 | > 10 | > 10
2 | Clc1ccc(C2C3COc4ccccc4C3=NN2c2ccccc2)cc1 (stereo not drawn) | > 100 | > 100 | 21.9 | > 100 | > 100 | > 100 | 47 | > 100 | > 100 | > 100 | > 100 | > 100
3 | O=C(/C=C/c1cc2ccccc2o1)N1CCN(c2ccccn2)CC1 | > 100 | > 100 | > 100 | > 100 | > 100 | > 100 | > 100 | > 100 | > 100 | > 100 | > 100 | > 100
4 | Cc1nn(-c2ccccc2)c2c1C(c1ccc(Cl)cc1)NC(=S)N2 (stereo not drawn) | 90.8 | 37.2 | > 100 | 62.3 | > 100 | 80.1 | > 100 | 60 | 48.1 | 35.2 | 69.5 | > 100
5 | COC(=O)C(Cc1c[nH]c2ccccc12)NP(=O)(O)OCC1OC(n2cc(I)c(=O)[nH]c2=O)CC1O (stereo not drawn) | > 100 | > 100 | > 100 | > 100 | > 100 | > 100 | > 100 | > 100 | > 100 | > 100 | > 100 | > 100
6 | CC(O)C1(CNc2cc(Cl)nc(N)n2)CCC1 (stereo not drawn) | > 100 | > 100 | > 100 | > 100 | > 100 | > 100 | > 100 | > 100 | > 100 | > 100 | > 100 | –
7 | CC1OC(OC2C(O)COC(OC3C(C)OC(OC4C(OC(=O)[C@]56CCC(C)(C)C[C@@H]5C5=CCC7[C@@]8(C)C[C@H](O)[C@H](OC9OC(CO)C(O)C(O)C9O)[C@@](C)(CO)[C@@H]8CC[C@@]7(C)[C@]5(C)CC6)OCC(O)C4O)C(O)C3OC3OCC(O)(CO)C3O)C2O)C(O)C(O)C1O (stereo partly drawn) | 15.8 | 35.7 | > 75 | 32.2 | 28.5 | 34.5 | 46.5 | 42.2 | 37.4 | 50.3 | 18 | 28.4
8 | CN1CCOC(c2ccccc2)O1 (stereo not drawn) | > 100 | > 100 | > 100 | > 100 | > 100 | > 100 | > 100 | > 100 | > 100 | > 100 | > 100 | > 100
9 | CN=C(N=Nc1c(O)[nH]c2ccccc12)SCC(=O)c1ccc(Br)cc1 | > 62.8 | > 56.7 | > 100 | 49.6 | > 20 | 20.7 | > 100 | > 38.3 | 16.6 | > 52.4 | 20 | > 48.7
10 | N#C/C1=C(\N)CCSSSC1 | > 100 | 45.6 | > 100 | 50.8 | > 100 | 89.6 | > 100 | 51.2 | > 100 | 95.6 | > 100 | > 100
11 | COc1ccc(P2(=S)OC(C)(C)C(C)(C)O2)cc1 | > 100 | > 100 | > 100 | > 100 | > 100 | > 100 | > 100 | > 100 | > 100 | > 100 | > 100 | –
12 | Fc1cc(-c2cc(-c3ccccc3)no2)c(Cl)cc1Cl | > 51.9 | > 34.5 | > 56.4 | > 49.4 | > 71.6 | > 54.8 | > 47.8 | > 43.1 | > 21.7 | 35.7 | > 41.6 | > 54.2
13 | O=Cc1[nH]c(=O)[nH]c(=O)c1C(=O)O | > 100 | > 100 | > 100 | > 100 | > 100 | > 100 | > 100 | > 100 | > 100 | > 100 | > 100 | > 100
14 | Cn1cc(NC(=O)Nc2cc(C(=O)Nc3cc(C(=O)Nc4ccc(S(=O)(=O)O)c5cc(S(=O)(=O)O)ccc45)n(C)c3)n(C)c2)cc1C(=O)Nc1cc(C(=O)Nc2ccc(S(=O)(=O)O)c3cc(S(=O)(=O)O)ccc23)n(C)c1 | > 100 | > 100 | > 100 | > 100 | > 100 | > 100 | > 100 | > 100 | > 100 | > 100 | > 100 | > 100
15 | COc1ccc(-[n+]2nc(S(=O)(=O)O)c(/C=C/c3ccc(N(C)C)cc3)cc2C#N)cc1 | > 100 | > 100 | > 100 | > 100 | > 100 | > 100 | > 100 | – | > 100 | > 100 | > 100 | > 100
16 | CCCCCCc1cc2cc(C(=O)Nc3ccccc3)c(=N)oc2cc1O | > 100 | 6.02 | > 100 | > 100 | > 100 | 11.8 | 8.79 | > 100 | > 33.6 | > 100 | > 37.5 | > 100
17 | CC1CCC(=O)C(C(=O)CC2CC(=O)N(C)C(=O)C2)C1 (stereo not drawn) | > 100 | > 100 | > 100 | > 100 | > 100 | > 100 | > 100 | > 100 | > 100 | > 100 | > 100 | > 100
18 | Oc1[nH]c2ccccc2c1N=NC(=S)Nc1cccc(Cl)c1 | > 100 | 77.6 | 50 | 29.2 | 75.5 | 42.5 | 10.8 | 65.2 | 89.1 | 70.3 | 35.6 | > 100
